Where no end group is shown, it is not given here. [ ]: non-standard residue; d: D form. Gln(vinylogous ester) = glutamine whose side-chain carboxamide is replaced by a vinylogous ester electrophilic trap (CO2Et)
What was measured:
[1] = tested on: gluten specific T cell lines; assay: T cell proliferation assay with gluten specific T cell lines; type: cell-based, human; conditions: T cell line from small intestinal biopsy of celiac disease patient; antigen 1-10 μg/ml; positive = Stimulation Index>3
Protocol: T cell clones T cell lines. Gluten specific T cell lines were generated from small intestinal biopsies of celiac disease patients as described before (van de Wal, 1998a).
T cell proliferation assays. Proliferation assays were performed in duplicate in 150 μl RPMI1640 (Gibco, Breda, NL) supplemented with 10% human serum in 96-well flat-bottomed plates (Falcon) using 10^4 T cells stimulated with 10^5 irradiated PBMCs (3000 RAD) in the presence or absence of antigen (1-10 μg/ml). After 48 hours at 37° C., cultures were pulsed with 0.5 μCi of ^3H-thymidine and harvested 18 hours thereafter as described previously (van de Wal, 1998b).

[2] = target: T1, tissue transglutaminase (tTG) (Cavia cutleri, UniProt P08587); assay: tTG treatment of synthetic gluten peptides, deamidation determined by mass spectrometry; type: biochemical; conditions: for deamidation of glutamine residues by tTG: peptide 500 μg/ml, tTG 100 μg/ml, 37° C., 4 h minimum, pH 6.5
T1 construct: purchased Sigma, Zwijndrecht, NL T-5398
T1 sequence (P08587 2-690 limits assumed): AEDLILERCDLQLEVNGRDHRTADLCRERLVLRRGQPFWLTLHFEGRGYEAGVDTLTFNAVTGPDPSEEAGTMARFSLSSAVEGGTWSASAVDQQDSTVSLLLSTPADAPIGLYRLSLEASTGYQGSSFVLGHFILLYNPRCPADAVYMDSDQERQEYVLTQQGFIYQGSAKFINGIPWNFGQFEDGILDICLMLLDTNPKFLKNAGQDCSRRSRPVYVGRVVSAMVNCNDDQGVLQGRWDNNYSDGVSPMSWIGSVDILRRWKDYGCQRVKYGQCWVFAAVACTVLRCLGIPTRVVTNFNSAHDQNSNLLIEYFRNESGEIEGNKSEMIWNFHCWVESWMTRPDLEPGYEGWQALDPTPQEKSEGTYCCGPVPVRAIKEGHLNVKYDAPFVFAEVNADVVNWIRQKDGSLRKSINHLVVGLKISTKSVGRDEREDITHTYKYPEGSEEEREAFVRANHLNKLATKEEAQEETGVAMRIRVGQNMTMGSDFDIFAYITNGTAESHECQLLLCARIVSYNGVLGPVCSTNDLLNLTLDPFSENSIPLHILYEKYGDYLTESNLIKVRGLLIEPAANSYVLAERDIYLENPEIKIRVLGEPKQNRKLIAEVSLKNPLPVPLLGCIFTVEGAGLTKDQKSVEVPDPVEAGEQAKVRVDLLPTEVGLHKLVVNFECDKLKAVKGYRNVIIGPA
Protocol: (§1) Peptides and tTG treatment. Peptides were synthesised by standard Fmoc chemistry on a multiple peptide synthesizer (SyroII, MultiSynTech GmbH, Witten, Germany). Integrity of synthetic peptides was checked by rpHPLC and mass spectrometry. Tissue transglutaminase (tTG) treatment was performed by incubating the peptides (500 μg/ml) with the enzyme (100 μg/ml, Sigma, Zwijndrecht, NL; T-5398) at 37° C. for 4 h minimum, in 50 mM triethylamine-acetate pH 6.5, 2 mM CaCl2.
(§2) Mass spectrometry. Electrospray ionisation mass spectrometry was performed on the synthetic gluten peptides before and after tTG treatment, using a Q-TOF hybrid mass spectrometer (Micromass, Manchester, UK). Precursor ions were selected with the quadrupole window set to 3 Da and fragments were collected with high efficiency with the orthogonal time of flight mass spectrometer. The collision gas applied was argon (pressure 4×10^−5 mbar) and the collision voltage approximately 30 V. Deamidation of glutamine residues in synthetic gluten peptides was determined by mass spectrometric analysis as described previously (van de Wal, 1998a). Deamidation of a glutamine residue results in an increase of 1 Da. These conversions were assigned to particular glutamine residues by comparison of the fragmentation spectra of tTG treated and non-treated peptides.

[3] = target: T1, tissue transglutaminase (tTG); conditions: earlier publications (van de Wal 1998a; Arentz-Hansen 2000); cited from earlier work
[4] = target: T1, tissue transglutaminase (tTG); assay: Inhibition of tTG induced deamidation of a substrate gluten peptide, mass spectrometric analysis; type: biochemical
Protocol: as §1, §2

[5] = tested on: gluten specific T cell lines; conditions: Arentz-Hansen 2000; Anderson 2000; cited from earlier work
[6] = tTG-treated synthetic gluten peptide, mass spectrometry

## PFPQTQQPQQPFPQ [gluten-derived peptide]
[1]
  stimulation of gluten specific T cell lines (proliferation): stimulate gluten specific T cell lines

## LQQPQQ6PQFQPQQQF [Peptide 20]
[2]; [6]
  Rules QP ↓ (share of Q residues following the rule: Q preceding P not deamidated): 100%
  Rules QXP ↑ (share of Q residues following the rule: P at Q+2 allows deamidation): 50%
  Rules QXXF ↑ (share of Q residues following the rule: bulky/hydrophobic residue at Q+3 allows deamidation): 50%^
  Rules QXXP ↓ (share of Q residues following the rule: P at Q+3 inhibits deamidation): 100%

## PFPQSQQPQQPFPQ [gluten-derived peptide]
[1]
  stimulation of gluten specific T cell lines (proliferation): stimulate gluten specific T cell lines

## PFPQPQQPQQPFPQ [gluten-derived peptide]
[1]
  stimulation of gluten specific T cell lines (proliferation): stimulate gluten specific T cell lines

## PSGQ208GSFQPSQQ216N
[2]
  deamidation of glutamine residues by tTG: only the Q208 is deamidated

## PFPQLQQPQQPFPQ [gluten-derived peptide]
[1]
  stimulation of gluten specific T cell lines (proliferation): stimulate gluten specific T cell lines

## QLPFPQQPQQPFPQ [gluten-derived peptide]
[1]
  stimulation of gluten specific T cell lines (proliferation): stimulate gluten specific T cell lines

## QFPQTQQPQQPFPQ [gluten-derived peptide]
[1]
  stimulation of gluten specific T cell lines (proliferation): stimulate gluten specific T cell lines

## PSGQ208GSFQPSQQ216NPQA
[3]
  deamidation of glutamine residues by tTG / tTG substrate: Q208 and Q216 are deamidated by tTG, whereas positions Q212, Q215, and Q219 are not

## QPQLPYPQ
[3]
  deamidation of glutamine residues by tTG / tTG substrate: known to be a tTG substrate

## PFSQQQQPV
[2]
  deamidation of glutamine residues by tTG: specifically and efficiently deamidated

## first-generation inhibitor: biotinylated QPQLPYQ in which the carboxamide of glutamine at position 3 is replaced by a vinylogous ester electrophilic trap (CO2Et, FIG. 3) (QP[Gln(vinylogous ester)]LPYQ; also: biotinylated)
[4]; 0.3 molar ratio of enzyme to inhibitor
  enzyme activity: completely abolished
[4]; inhibitor mixed with the enzyme in an equimolar ratio
  inhibition of deamidation of a substrate peptide: over 50%

## QQPFPQQPQQPFPQ [gluten-derived peptide]
[1]
  stimulation of gluten specific T cell lines (proliferation): stimulate gluten specific T cell lines

## 9: gluten peptide FPQHCNYQ[Q]QPQTFPQPF; [Q] = image character, presumably deamidated Q [Peptide 9]
[2]; [6]
  Rules QP ↓ (share of Q residues following the rule: Q preceding P not deamidated): 100%
  Rules QXP ↑ (share of Q residues following the rule: P at Q+2 allows deamidation): 100%
  Rules QXXP ↓ (share of Q residues following the rule: P at Q+3 inhibits deamidation): 100%

## QLQPFPQPQLPY
[5]
  T cell stimulatory activity in celiac disease patients: immunodominant

## QQPYPQQPQQPFPQ [gluten-derived peptide]
[1]
  stimulation of gluten specific T cell lines (proliferation): stimulate gluten specific T cell lines

## PFSQQQQLVL
[2]
  deamidation of glutamine residues by tTG: all Q-residues are deamidated

— patent US20050244823A1, “Novel epitopes for celiac disease and autoimmune diseases, methods for detecting those and novel non-antigenic food compounds” (Academisch Ziekenhuis Leiden, priority 2002, published 2005)
